Results published in US6342487B1, “Compositions containing at least one farnesyl transferase inhibitor and at least one topoisomerase inhibitor and compositions containing at least one farnesyl transferase inhibitor and at least one taxoid” (Aventis Pharma Rorer S.A., priority 1998, dated 2002).

Experiments:
human colon tumor HCT116 = experiment: Activity on the colon tumor HCT116 grafted by the subcutaneous route onto female nu/nu Swiss mice; format: in vivo
Description: This efficacy can be quantified, for example, by the net log 10 of the killed cells which is determined according to the following formula:
net log 10 of the killed cells=[T-C (days)−duration of the treatment (days)]/[3.32·Td]
in which T-C represents the delay in tumor growth which is the median time, in days, which the tumors of the treated group (T) and the tumors of the control group (C) took to reach a predetermined value (1 g for example) and Td represents the time, in days, necessary for the doubling of the volume of the tumor in the control animals [T. H. CORBETT et al., Cancer, 40, 2660-2680 (1977); F. M. SCHABEL et al., Cancer Drug Development, Part B, Methods in Cancer Research, 17, 3-51, New York, Academic Press Inc. (1979)].
A product is considered as very active if net log 10 of the killed cells is greater than or equal to 2.8. […] In such a case, the net log 10 of the killed cells has a positive value.
The combination, used at its own maximum tolerated dose, in which each of the constituents will be present at a dose which is generally lower than or equal to its maximum tolerated dose, will show a therapeutic synergy when the net log 10 of the killed cells is higher than the value of the net log 10 of the killed cells of the better constituent when it is administered alone.
The efficacy of the combinations on solid tumors can be determined experimentally in the following manner:
The animals subjected to the experiment, generally mice, are grafted bilaterally by the subcutaneous route with 30 to 60 mg of a tumor fragment on day 0. In the case of treatment of advanced tumors, the tumors are allowed to develop to the desired size, the animals having insufficiently developed tumors being eliminated. The selected animals are divided as a function of their tumor weight in a homogeneous manner between the treated and control groups, before the start of the treatments. Chemotherapy generally commences 12 to 14 days after the implantation of the tumor and the animals are observed every day. The different groups of animals are weighed every day until the maximum loss of weight is reached and then the groups are weighed at least once per week until the end of the test. The tumors are measured 2 to 3 times per week, with the aid of a slide calliper, according to two measurements in mm which are then converted into tumor weight according to the following formula: […]
The tumors are measured two or three times per week until the tumor reaches approximately 2 g or until the death of the animal if this occurs before the tumor reaches 2 g. An autopsy is carried out on the animals at the time of sacrifice.
The antitumor activity is determined as a function of the different parameters recorded.

[1] = Toxicity of the combination of product A with irinotecan; format: in vivo; settings: in combination with the topoisomerase inhibitor irinotecan
[2] = Table 1, tumor doubling time 3.4 days, 248 mg/kg per injection, days 14-25 (2x/d.)
[3] = Table 1, tumor doubling time 3.4 days, 400 mg/kg per injection, days 14-25 (2x/d.)
[4] = Table 1, tumor doubling time 3.4 days, 645 mg/kg per injection, days 14-25 (2x/d.)
[5] = Table 2, tumor doubling time 4.5 days, 645 mg/kg per injection, days 14-25 (2x/d.)
[6] = Table 1, tumor doubling time 3.4 days, doses 25 and 248 mg/kg per injection, days 14, 18, 22 (2x/d.) and 25-36 (2x/d.)
[7] = Table 1, tumor doubling time 3.4 days, doses 25 and 400 mg/kg per injection, days 14, 18, 22 (2x/d.) and 25-36 (2x/d.)
[8] = Table 1, tumor doubling time 3.4 days, doses 25 and 645 mg/kg per injection, days 14, 18, 22 (2x/d.) and 25-36 (2x/d.)
[9] = Table 1, tumor doubling time 3.4 days, doses 41 and 248 mg/kg per injection, days 14, 18, 22 (2x/d.) and 25-36 (2x/d.)
[10] = Table 1, tumor doubling time 3.4 days, doses 41 and 400 mg/kg per injection, days 14, 18, 22 (2x/d.) and 25-36 (2x/d.)
[11] = Table 1, tumor doubling time 3.4 days, doses 41 and 645 mg/kg per injection, days 14, 18, 22 (2x/d.) and 25-36 (2x/d.)
[12] = Table 2, tumor doubling time 4.5 days, 11.2 mg/kg per injection, days 14, 18, 22 (2x/d.)
[13] = Table 2, tumor doubling time 4.5 days, 18.7 mg/kg per injection, days 14, 18, 22 (2x/d.)
[14] = Table 2, tumor doubling time 4.5 days, 31.2 mg/kg per injection, days 14, 18, 22 (2x/d.)
[15] = Table 2, tumor doubling time 4.5 days, 52.0 mg/kg per injection, days 14, 18, 22 (2x/d.)

## C=C(C(=O)N1C[C@@H]2[C@]3(c4ccc(C)cc4)CC[C@@H](c4ccccc43)[C@]2(C(=O)O)C1)c1ccccc1OC (racemic) [A, (3aRS,4SR,9SR,9aRS)-4,9-ethano-2-[2-(2-methoxyphenyl)propenoyl]-9-(4-methylphenyl)-2,3,3a,4,9,9a-hexahydro-1H-benzo[f]isoindole-3a-carboxylic acid]
Human colon tumor HCT116; [2]
  (T-C)-(Duration of treatment): -10.9 days
  Long-term survivors on day 154: 0/6
  net log10 of killed cells: −1.0
Human colon tumor HCT116; [3]
  (T-C)-(Duration of treatment): -4.2 days
  Long-term survivors on day 154: 0/6
  net log10 of killed cells: −0.4
Human colon tumor HCT116; [4]
  (T-C)-(Duration of treatment): -2.7 days
  Long-term survivors on day 154: 0/6
  net log10 of killed cells: −0.2
Human colon tumor HCT116; [5]
  (T-C)-(Duration of treatment): 6.9 days
  Long-term survivors on day 154: 0/5
  net log10 of killed cells: 0.5
[1]
  toxicity in combination with irinotecan: does not increase the toxicity of irinotecan

## CCc1c2c(nc3ccc(OC(=O)N4CCC(N5CCCCC5)CC4)cc13)-c1cc3c(c(=O)n1C2)COC(=O)[C@]3(O)CC [Irinotecan, irinotecan]
Human colon tumor HCT116; [6]
  (T-C)-(Duration of treatment): 19.1 days
  Long-term survivors on day 154: 1/6
  net log10 of killed cells: 1.7
Human colon tumor HCT116; [7]
  Long-term survivors on day 154: 2/7
  net log10 of killed cells: 3.3
Human colon tumor HCT116; [8]
  Long-term survivors on day 154: 3/8
  net log10 of killed cells: 3.6
Human colon tumor HCT116; [9]
  Long-term survivors on day 154: 4/8
  net log10 of killed cells: 3.3
Human colon tumor HCT116; [10]
  (T-C)-(Duration of treatment): 55.9 days
  Long-term survivors on day 154: 4/7
  net log10 of killed cells: 5.0
Human colon tumor HCT116; [11]
  Long-term survivors on day 154: 4/8
  net log10 of killed cells: 3.4
Human colon tumor HCT116; [12]
  (T-C)-(Duration of treatment): 8.3 days
  net log10 of killed cells: 0.6
Human colon tumor HCT116; [13]
  Long-term survivors on day 154: 0/5
  net log10 of killed cells: 1.1
Human colon tumor HCT116; [14]
  Long-term survivors on day 154: 0/5
  net log10 of killed cells: 1.0
Human colon tumor HCT116; [15]
  (T-C)-(Duration of treatment): 19.5 days
  Long-term survivors on day 154: 0/5
  net log10 of killed cells: 1.3
Human colon tumor HCT116; mouse, in vivo, 86 mg/kg
  (T-C)-(Duration of treatment): toxic
